Reference: patent US9096550B2, “Bryostatin analogues and methods of making and using thereof” (UNIVERSITY OF UTAH RESEARCH FOUNDATION, priority 2008, dated 2015)

Target: mouse recombinant isozyme PKCα (Mus musculus, UniProt P20444)
Assay: [3H]PDBu binding assay (displacement of bound [20-3H]phorbol 12,13-dibutyrate)
Conditions: displacement of [3H]PDBu from PKCα in the presence of calcium and phosphatidylserine; read-out: inhibitory dissociation constant (Ki)
Method: The inhibitory dissociation constant (Ki) of each bryologue ligand was determined by the ability of the ligand to displace bound [20-^3H]phorbol 12,13-dibutyrate (PDBu) from mouse recombinant isozyme PKC α in the presence of calcium and phosphatidylserine, using a polyethylene glycol precipitation assay developed in our laboratory as described elsewhere. Briefly, the assay mixture (250 μL) contained 50 mM Tris-HCl (pH 7.4 at room temperature), 100 μg/mL phosphatidylserine, 0.1 mM Ca^2+, 4 mg/mL bovine immunoglobulin G and 0.003% Tx-100, 2 nM [^3H]PDBu and various concentrations of the competing ligand. […] The radioactivity was determined by scintillation counting, using Cytoscint (ICN, Costa Mesa, Calif.). Specific binding was calculated as the difference between total and nonspecific PDBu binding. The Inhibitory dissociation constants (Ki) were calculated using the method previously described by Blumberg and Lewin.
The inhibitory dissociation constant (Ki) of MERLE 28 was determined by the ability of the ligand to displace bound [20-^3H]phorbol 12,13-dibutyrate (PDBu) from mouse recombinant isozyme PKCα in the presence of calcium and phosphatidylserine, using a polyethylene glycol precipitation assay previously described by Blumberg and Lewin. […] The radioactivity was determined by scintillation counting, using Cytoscint (ICN, Costa Mesa, Calif.). […]

## C=C1C[C@H]2C[C@H]3C[C@@H](OC(C)=O)C[C@@H](C[C@@H](O)CC(=O)O[C@@H]([C@@H](C)O)C[C@@H]4C/C(=C\C(=O)OC)[C@H](OC(=O)CCCCCCC)[C@@](O)(O4)C(C)(C)/C=C/[C@@H](C1)O2)O3 [MERLE 27]
  Ki: 3 ± 0.6 nM
